“And” between values parts separate entries of the source, which are not always exact repeats. Equal entries are not always repeated.
Experiments:
[1] = target: Bromodomain-containing protein 9 (Homo sapiens) (UniProt Q9H8M2); conditions: Compound concentration 10.0 uM, Protein concentration 2.0 uM
[2] = target: Nucleosome-remodeling factor subunit BPTF (Homo sapiens) (UniProt Q12830); conditions: Compound concentration 10.0 uM, Protein concentration 2.0 uM
[3] = target: Histone-lysine N-methyltransferase 2A (Homo sapiens) (UniProt Q03164); conditions: Compound concentration 10.0 uM, Protein concentration 2.0 uM
[4] = target: Bromodomain and WD repeat-containing protein 3 (Homo sapiens) (UniProt Q6RI45); conditions: Compound concentration 10.0 uM, Protein concentration 2.0 uM
[5] = target: Histone acetyltransferase KAT2B (Homo sapiens) (UniProt Q92831); conditions: Compound concentration 10.0 uM, Protein concentration 2.0 uM
[6] = target: Bromodomain-containing protein 3 (Homo sapiens) (UniProt Q15059); conditions: Compound concentration 10.0 uM, Protein concentration 2.0 uM
Bromodomain-containing protein 3 (Homo sapiens), sequence (Q15059 2-726 limits assumed): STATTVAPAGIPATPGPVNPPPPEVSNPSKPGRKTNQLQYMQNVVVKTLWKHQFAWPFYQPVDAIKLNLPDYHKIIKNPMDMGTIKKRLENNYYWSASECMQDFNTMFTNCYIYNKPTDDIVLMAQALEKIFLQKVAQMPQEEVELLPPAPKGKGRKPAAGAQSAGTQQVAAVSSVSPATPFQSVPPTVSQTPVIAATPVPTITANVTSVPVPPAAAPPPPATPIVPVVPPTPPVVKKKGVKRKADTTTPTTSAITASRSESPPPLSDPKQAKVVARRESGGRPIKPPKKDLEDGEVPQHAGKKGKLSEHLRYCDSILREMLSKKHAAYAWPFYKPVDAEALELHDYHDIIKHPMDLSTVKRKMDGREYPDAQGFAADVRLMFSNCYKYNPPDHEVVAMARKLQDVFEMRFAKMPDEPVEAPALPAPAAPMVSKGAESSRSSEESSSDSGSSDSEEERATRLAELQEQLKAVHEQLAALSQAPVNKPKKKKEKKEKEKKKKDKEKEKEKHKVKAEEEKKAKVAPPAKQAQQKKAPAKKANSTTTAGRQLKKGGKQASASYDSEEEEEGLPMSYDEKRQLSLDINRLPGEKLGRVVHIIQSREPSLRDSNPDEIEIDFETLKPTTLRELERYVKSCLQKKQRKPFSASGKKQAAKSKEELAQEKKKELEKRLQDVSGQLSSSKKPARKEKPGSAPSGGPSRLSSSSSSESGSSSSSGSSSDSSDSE

[7] = target: Nuclear body protein SP140 (Homo sapiens) (UniProt Q13342); conditions: Compound concentration 10.0 uM, Protein concentration 2.0 uM
[8] = target: Bromodomain-containing protein 2 (Homo sapiens) (UniProt P25440); conditions: Compound concentration 10.0 uM, Protein concentration 2.0 uM
Peregrin (Homo sapiens) [9] = target: Peregrin (Homo sapiens) (UniProt P55201); conditions: Compound concentration 10.0 uM, Protein concentration 2.0 uM
Peregrin (Homo sapiens), sequence (P55201 whole entry): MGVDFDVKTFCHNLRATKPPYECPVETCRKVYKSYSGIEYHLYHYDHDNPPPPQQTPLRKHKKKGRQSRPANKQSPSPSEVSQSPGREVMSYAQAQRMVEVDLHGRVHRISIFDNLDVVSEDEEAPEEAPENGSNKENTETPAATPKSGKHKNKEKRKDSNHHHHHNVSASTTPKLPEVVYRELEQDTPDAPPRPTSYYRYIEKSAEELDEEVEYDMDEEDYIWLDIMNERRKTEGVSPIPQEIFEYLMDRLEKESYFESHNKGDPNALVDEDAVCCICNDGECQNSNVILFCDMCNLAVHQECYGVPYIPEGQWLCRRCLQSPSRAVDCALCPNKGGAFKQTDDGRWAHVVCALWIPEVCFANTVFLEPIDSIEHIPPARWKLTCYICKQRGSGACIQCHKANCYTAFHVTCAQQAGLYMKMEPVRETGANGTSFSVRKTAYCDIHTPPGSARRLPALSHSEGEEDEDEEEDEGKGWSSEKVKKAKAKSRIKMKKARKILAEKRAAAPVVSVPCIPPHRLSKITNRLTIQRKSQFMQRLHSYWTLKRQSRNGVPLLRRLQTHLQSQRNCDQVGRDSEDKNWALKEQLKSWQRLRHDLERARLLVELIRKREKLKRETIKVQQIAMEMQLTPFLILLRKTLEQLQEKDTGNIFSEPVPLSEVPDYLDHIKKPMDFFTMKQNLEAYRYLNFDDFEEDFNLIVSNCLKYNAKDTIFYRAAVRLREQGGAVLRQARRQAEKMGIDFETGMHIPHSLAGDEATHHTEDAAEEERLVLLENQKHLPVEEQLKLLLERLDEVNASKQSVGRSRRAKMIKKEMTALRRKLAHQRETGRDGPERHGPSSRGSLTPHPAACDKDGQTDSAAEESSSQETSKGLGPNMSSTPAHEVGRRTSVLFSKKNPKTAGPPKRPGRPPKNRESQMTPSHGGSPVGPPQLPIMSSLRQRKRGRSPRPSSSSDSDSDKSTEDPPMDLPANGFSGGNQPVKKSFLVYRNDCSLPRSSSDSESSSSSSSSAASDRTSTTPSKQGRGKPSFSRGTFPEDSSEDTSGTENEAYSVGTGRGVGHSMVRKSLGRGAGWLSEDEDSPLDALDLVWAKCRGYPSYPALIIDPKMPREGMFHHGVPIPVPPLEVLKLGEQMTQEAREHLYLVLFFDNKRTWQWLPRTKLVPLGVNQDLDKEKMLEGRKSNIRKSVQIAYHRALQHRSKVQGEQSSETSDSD

[10] = target: Nuclear body protein SP140-like protein (Homo sapiens) (UniProt Q9H930); conditions: Compound concentration 10.0 uM, Protein concentration 2.0 uM
[11] = target: Bromodomain-containing protein 1 (Homo sapiens) (UniProt O95696); conditions: Compound concentration 10.0 uM, Protein concentration 2.0 uM
[12] = target: Bromodomain and PHD finger-containing protein 3 (Homo sapiens) (UniProt Q9ULD4); conditions: Compound concentration 10.0 uM, Protein concentration 2.0 uM
[13] = target: Bromodomain testis-specific protein (Homo sapiens) (UniProt Q58F21); conditions: Compound concentration 10.0 uM, Protein concentration 2.0 uM
[14] = target: Protein polybromo-1 (Homo sapiens) (UniProt Q86U86); conditions: Compound concentration 10.0 uM, Protein concentration 2.0 uM
[15] = target: Bromodomain adjacent to zinc finger domain protein 1A (Homo sapiens) (UniProt Q9NRL2); conditions: Compound concentration 10.0 uM, Protein concentration 2.0 uM
[16] = target: Bromodomain-containing protein 4 (Homo sapiens) (UniProt O60885); conditions: Compound concentration 10.0 uM, Protein concentration 2.0 uM
[17] = target: Transcription initiation factor TFIID subunit 1 (Homo sapiens) (UniProt P21675); conditions: Compound concentration 10.0 uM, Protein concentration 2.0 uM
Transcription initiation factor TFIID subunit 1 (Homo sapiens), sequence (P21675 whole entry): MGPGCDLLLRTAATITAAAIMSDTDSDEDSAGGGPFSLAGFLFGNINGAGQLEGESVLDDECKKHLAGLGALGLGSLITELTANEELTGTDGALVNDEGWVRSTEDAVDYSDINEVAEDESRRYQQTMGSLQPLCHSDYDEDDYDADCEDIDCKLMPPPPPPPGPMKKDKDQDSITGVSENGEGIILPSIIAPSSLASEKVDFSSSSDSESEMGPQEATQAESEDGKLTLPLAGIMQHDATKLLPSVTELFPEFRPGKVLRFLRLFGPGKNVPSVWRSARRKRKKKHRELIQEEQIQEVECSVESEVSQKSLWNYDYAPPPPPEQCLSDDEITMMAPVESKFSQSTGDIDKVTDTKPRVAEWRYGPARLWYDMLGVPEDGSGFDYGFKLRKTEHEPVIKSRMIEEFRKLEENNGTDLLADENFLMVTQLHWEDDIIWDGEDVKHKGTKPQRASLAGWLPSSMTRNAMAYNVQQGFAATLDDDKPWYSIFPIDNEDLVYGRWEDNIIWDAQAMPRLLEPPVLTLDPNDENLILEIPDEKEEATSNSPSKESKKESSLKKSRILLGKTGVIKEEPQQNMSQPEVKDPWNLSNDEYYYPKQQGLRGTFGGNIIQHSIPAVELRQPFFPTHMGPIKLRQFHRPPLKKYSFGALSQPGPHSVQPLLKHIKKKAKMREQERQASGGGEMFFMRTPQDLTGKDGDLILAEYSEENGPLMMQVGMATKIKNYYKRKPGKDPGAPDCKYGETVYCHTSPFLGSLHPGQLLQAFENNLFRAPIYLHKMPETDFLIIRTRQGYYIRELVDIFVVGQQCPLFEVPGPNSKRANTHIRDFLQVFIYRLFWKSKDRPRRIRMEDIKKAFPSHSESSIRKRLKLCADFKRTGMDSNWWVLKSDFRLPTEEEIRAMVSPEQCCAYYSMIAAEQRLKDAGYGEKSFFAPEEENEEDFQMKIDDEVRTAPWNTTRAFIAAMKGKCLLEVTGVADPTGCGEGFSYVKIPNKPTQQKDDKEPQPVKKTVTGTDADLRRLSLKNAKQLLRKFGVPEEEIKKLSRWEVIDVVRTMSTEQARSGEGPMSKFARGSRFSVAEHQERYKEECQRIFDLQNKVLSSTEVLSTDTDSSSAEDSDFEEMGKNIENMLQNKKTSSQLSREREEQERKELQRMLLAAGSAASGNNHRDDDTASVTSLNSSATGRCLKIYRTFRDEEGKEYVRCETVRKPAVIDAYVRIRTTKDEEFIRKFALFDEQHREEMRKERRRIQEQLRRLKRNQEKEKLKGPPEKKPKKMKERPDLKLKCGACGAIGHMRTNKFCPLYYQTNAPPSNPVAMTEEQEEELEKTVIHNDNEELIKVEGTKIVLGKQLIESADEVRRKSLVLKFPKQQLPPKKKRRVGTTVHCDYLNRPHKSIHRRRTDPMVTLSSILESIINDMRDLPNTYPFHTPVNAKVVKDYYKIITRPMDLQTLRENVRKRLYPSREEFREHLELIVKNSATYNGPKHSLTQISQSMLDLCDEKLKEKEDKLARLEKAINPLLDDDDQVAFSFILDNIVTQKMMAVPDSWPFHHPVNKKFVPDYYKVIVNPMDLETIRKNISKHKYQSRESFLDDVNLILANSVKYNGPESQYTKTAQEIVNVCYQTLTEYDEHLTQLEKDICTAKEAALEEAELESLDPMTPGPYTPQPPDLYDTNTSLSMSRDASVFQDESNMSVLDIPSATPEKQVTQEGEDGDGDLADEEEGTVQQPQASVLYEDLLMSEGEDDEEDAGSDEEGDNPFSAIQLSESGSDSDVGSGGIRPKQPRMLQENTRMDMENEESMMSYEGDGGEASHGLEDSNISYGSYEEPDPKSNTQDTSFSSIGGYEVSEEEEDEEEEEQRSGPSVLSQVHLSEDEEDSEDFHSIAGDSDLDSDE

[18] = target: Chromatin remodeling regulator CECR2 (Homo sapiens) (UniProt Q9BXF3); conditions: Compound concentration 10.0 uM, Protein concentration 2.0 uM
[19] = target: ATPase family AAA domain-containing protein 2 (Homo sapiens) (UniProt Q6PL18); conditions: Compound concentration 10.0 uM, Protein concentration 2.0 uM
[20] = target: Protein polybromo-1 (Homo sapiens) (UniProt Q86U86); conditions: Compound concentration 10.0 uM, Protein concentration 2.0 uM; remark: listed apart in the source
[21] = target: Transcription initiation factor TFIID subunit 1-like (Homo sapiens) (UniProt Q8IZX4); conditions: Compound concentration 10.0 uM, Protein concentration 2.0 uM
[22] = target: Tyrosine-protein kinase BAZ1B (Homo sapiens) (UniProt Q9UIG0); conditions: Compound concentration 10.0 uM, Protein concentration 2.0 uM
[23] = target: Bromodomain testis-specific protein (Homo sapiens) (UniProt Q58F21); conditions: Compound concentration 10.0 uM, Protein concentration 2.0 uM; remark: listed apart in the source
[24] = target: Protein polybromo-1 (Homo sapiens) (UniProt Q86U86); conditions: Compound concentration 10.0 uM, Protein concentration 2.0 uM; remark: listed apart in the source
[25] = target: Protein polybromo-1 (Homo sapiens) (UniProt Q86U86); conditions: Compound concentration 10.0 uM, Protein concentration 2.0 uM; remark: listed apart in the source
[26] = target: Bromodomain-containing protein 3 (Homo sapiens) (UniProt Q15059); conditions: Compound concentration 10.0 uM, Protein concentration 2.0 uM; remark: listed apart in the source
[27] = target: Bromodomain-containing protein 1 (Homo sapiens, UniProt O95696)
[28] = target: SWI/SNF-related matrix-associated actin-dependent regulator of chromatin subfamily A member 4 (Homo sapiens) (UniProt P51532); conditions: Compound concentration 10.0 uM, Protein concentration 2.0 uM
[29] = target: T1, E3 ubiquitin-protein ligase TRIM33 (Homo sapiens) (UniProt Q9UPN9); conditions: Compound concentration […], Protein concentration 200.0 uM
T1 sequence (whole entry): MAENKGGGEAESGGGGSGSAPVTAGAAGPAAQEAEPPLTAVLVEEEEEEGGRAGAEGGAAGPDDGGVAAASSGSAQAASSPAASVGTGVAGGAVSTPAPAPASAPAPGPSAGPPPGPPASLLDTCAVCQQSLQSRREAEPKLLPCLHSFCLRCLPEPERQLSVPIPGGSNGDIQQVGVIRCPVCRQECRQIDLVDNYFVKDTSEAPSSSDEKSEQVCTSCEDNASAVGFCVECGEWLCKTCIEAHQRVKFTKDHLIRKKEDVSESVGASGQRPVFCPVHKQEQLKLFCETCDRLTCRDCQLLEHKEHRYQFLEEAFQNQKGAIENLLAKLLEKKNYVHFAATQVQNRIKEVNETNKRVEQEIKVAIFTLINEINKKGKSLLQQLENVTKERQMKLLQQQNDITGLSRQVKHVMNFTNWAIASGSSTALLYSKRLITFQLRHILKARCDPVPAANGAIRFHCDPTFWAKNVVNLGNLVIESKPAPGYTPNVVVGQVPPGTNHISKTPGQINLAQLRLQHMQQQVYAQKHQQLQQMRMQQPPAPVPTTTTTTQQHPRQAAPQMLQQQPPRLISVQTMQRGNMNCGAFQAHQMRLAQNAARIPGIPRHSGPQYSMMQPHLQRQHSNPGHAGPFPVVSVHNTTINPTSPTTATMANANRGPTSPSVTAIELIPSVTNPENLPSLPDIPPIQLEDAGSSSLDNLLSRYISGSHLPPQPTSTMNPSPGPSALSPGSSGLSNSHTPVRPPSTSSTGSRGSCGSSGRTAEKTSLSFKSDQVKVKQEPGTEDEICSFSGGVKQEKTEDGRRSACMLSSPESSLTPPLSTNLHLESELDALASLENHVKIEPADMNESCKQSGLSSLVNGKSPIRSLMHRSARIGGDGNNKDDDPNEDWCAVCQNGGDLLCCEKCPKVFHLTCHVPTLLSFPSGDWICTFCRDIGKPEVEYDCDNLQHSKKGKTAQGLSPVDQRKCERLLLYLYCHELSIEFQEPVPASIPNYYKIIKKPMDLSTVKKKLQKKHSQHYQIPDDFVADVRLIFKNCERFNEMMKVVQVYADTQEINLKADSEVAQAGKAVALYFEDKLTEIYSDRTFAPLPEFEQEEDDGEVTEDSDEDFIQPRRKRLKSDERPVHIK

[30] = target: T1, E3 ubiquitin-protein ligase TRIM33 (Homo sapiens); experiment: Thermal Shift Assay. Domain start/stop: D882-P1073; conditions: Compound concentration 10.0 uM
[31] = target: Histone acetyltransferase p300 (Homo sapiens) (UniProt Q09472); conditions: Compound concentration 10.0 uM, Protein concentration 2.0 uM
[32] = target: Transcription intermediary factor 1-beta (Homo sapiens) (UniProt Q13263); conditions: Compound concentration 10.0 uM, Protein concentration 2.0 uM
[33] = target: Chromatin remodeling regulator CECR2 (Homo sapiens) (UniProt Q9BXF3); conditions: Compound concentration 10.0 uM, Protein concentration 2.0 uM; remark: listed apart in the source
Peregrin (Homo sapiens) [34] = target: Peregrin (Homo sapiens) (UniProt P55201); conditions: Compound concentration 10.0 uM, Protein concentration 2.0 uM; remark: listed apart in the source
[35] = target: Transcription intermediary factor 1-alpha (Homo sapiens) (UniProt O15164); conditions: Compound concentration 10.0 uM, Protein concentration 2.0 uM
Transcription intermediary factor 1-alpha (Homo sapiens), sequence (O15164 whole entry): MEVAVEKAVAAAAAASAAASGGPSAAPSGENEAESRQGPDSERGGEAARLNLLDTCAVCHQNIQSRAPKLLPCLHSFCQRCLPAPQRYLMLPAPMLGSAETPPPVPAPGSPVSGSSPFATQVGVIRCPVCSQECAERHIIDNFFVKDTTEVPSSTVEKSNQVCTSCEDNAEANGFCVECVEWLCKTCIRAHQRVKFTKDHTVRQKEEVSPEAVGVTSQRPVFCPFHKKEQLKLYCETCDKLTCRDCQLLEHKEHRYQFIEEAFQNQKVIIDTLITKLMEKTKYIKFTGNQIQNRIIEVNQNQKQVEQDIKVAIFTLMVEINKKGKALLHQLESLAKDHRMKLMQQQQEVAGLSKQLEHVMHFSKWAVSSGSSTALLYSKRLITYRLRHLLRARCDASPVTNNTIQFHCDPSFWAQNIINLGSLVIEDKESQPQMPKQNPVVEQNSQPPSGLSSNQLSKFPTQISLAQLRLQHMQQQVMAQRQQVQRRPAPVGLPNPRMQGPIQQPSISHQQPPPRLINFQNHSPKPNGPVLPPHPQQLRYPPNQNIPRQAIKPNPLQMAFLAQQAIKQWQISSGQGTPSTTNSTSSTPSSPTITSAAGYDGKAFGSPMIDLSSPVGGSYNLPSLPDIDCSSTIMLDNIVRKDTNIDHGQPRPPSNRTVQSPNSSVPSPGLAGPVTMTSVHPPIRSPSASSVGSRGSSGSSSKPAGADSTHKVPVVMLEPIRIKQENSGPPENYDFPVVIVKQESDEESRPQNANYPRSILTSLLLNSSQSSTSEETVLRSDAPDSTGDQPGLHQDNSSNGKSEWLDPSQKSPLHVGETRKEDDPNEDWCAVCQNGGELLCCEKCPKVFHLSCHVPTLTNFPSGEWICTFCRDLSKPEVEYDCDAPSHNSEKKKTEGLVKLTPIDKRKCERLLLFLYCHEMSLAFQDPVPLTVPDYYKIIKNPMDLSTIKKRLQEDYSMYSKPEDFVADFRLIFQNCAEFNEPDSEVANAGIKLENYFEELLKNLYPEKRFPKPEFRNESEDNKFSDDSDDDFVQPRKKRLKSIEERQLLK

[36] = target: Transcription intermediary factor 1-alpha (Homo sapiens) (UniProt O15164); experiment: Thermal Shift Assay. Domain start/stop: N790-P971; conditions: Compound concentration 10.0 uM, Protein concentration 2.0 uM
[37] = target: Histone acetyltransferase KAT2A (Homo sapiens) (UniProt Q92830); conditions: Compound concentration 10.0 uM, Protein concentration 2.0 uM
[38] = target: Transcription initiation factor TFIID subunit 1 (Homo sapiens) (UniProt P21675); conditions: Compound concentration 10.0 uM, Protein concentration 2.0 uM; remark: listed apart in the source
[39] = target: Protein polybromo-1 (Homo sapiens) (UniProt Q86U86); conditions: Compound concentration 10.0 uM, Protein concentration 2.0 uM; remark: listed apart in the source
[40] = target: Bromodomain adjacent to zinc finger domain protein 2B (Homo sapiens) (UniProt Q9UIF8); conditions: Compound concentration 10.0 uM, Protein concentration 2.0 uM
[41] = target: SWI/SNF-related matrix-associated actin-dependent regulator of chromatin subfamily A member 2 (Homo sapiens) (UniProt P51531); conditions: Compound concentration 10.0 uM, Protein concentration 2.0 uM
[42] = target: Protein polybromo-1 (Homo sapiens) (UniProt Q86U86); conditions: Compound concentration 10.0 uM, Protein concentration 2.0 uM; remark: listed apart in the source
[43] = target: CREB-binding protein (Homo sapiens) (UniProt Q92793); conditions: Compound concentration 10.0 uM, Protein concentration 2.0 uM
[44] = target: Histone-lysine N-methyltransferase ASH1L (Homo sapiens) (UniProt Q9NR48); conditions: Compound concentration 10.0 uM, Protein concentration 2.0 uM
[45] = target: Bromodomain-containing protein 7 (Homo sapiens) (UniProt Q9NPI1); conditions: Compound concentration 10.0 uM, Protein concentration 2.0 uM
[46] = target: Bromodomain-containing protein 2 (Homo sapiens) (UniProt P25440); conditions: Compound concentration 10.0 uM, Protein concentration 2.0 uM; remark: listed apart in the source
[47] = target: ATPase family AAA domain-containing protein 2B (Homo sapiens) (UniProt Q9ULI0); conditions: Compound concentration 10.0 uM, Protein concentration 2.0 uM
[48] = target: Transcription initiation factor TFIID subunit 1-like (Homo sapiens) (UniProt Q8IZX4); conditions: Compound concentration 10.0 uM, Protein concentration 2.0 uM; remark: listed apart in the source
[49] = target: PH-interacting protein (Homo sapiens) (UniProt Q8WWQ0); conditions: Compound concentration 10.0 uM, Protein concentration 2.0 uM
[50] = target: Bromodomain adjacent to zinc finger domain protein 2A (Homo sapiens) (UniProt Q9UIF9); conditions: Compound concentration 10.0 uM, Protein concentration 2.0 uM
[51] = target: Bromodomain and WD repeat-containing protein 1 (Homo sapiens) (UniProt Q9NSI6); conditions: Compound concentration 10.0 uM, Protein concentration 2.0 uM

COc1cc2c(cc1NS(=O)(=O)c1ccc(Br)cc1C)n(C)c(=O)n2C
ΔTm [1]: 1.48 °C | ΔTm [2]: 0.79 °C and 1.4 °C | ΔTm [3]: 0.64 °C | ΔTm [4]: 1.67 °C | ΔTm [5]: 0.53 °C | ΔTm [6]: 1.93 °C | ΔTm [7]: 0.32 °C | ΔTm [8]: 1.41 °C | ΔTm (Peregrin (Homo sapiens) [9]): 7.61 °C and 6.99 °C and 6.03 °C | ΔTm [10]: 0.82 °C | ΔTm [11]: 3.15 °C and 3.42 °C | ΔTm [12]: 1.85 °C and 3.4 °C | ΔTm [13]: 1.5 °C | ΔTm [14]: 1.45 °C | ΔTm [15]: 1.07 °C | ΔTm [16]: 1.31 °C | ΔTm [17]: 0.35 °C | ΔTm [18]: -0.25 °C | ΔTm [19]: 0.15 °C | ΔTm [20]: 0.28 °C | ΔTm [21]: -1.08 °C and 1.68 °C | ΔTm [22]: 0.53 °C | ΔTm [23]: 1.19 °C | ΔTm [24]: 1.74 °C | ΔTm [25]: 0.5 °C | ΔTm [26]: 2.03 °C | IC50 [27]: 128 nM | ΔTm [28]: 0.35 °C | inhibition [29]: 9.06% | ΔTm ([30]; Protein concentration 2.0 uM): -0.61 °C | ΔTm ([30]; Protein concentration […]): -0.23 °C | ΔTm [31]: 0.87 °C | ΔTm [32]: 0.37 °C | ΔTm [33]: 0.5 °C | ΔTm (Peregrin (Homo sapiens) [34]): 0.46 °C and 0.95 °C | ΔTm [35]: 1.16 °C and 2.05 °C | ΔTm [36]: 0.91 °C | ΔTm [37]: 0.57 °C | ΔTm [38]: 0.36 °C and 0.33 °C | ΔTm [39]: 0.53 °C | ΔTm [40]: 1.14 °C | ΔTm [41]: 0.38 °C | ΔTm [42]: 0.96 °C | ΔTm [43]: 1.22 °C and 1.19 °C | ΔTm [44]: 0.82 °C | ΔTm [45]: 1.42 °C | ΔTm [46]: 1.02 °C | ΔTm [47]: 0.21 °C | ΔTm [48]: 0.36 °C | ΔTm [49]: 0.36 °C | ΔTm [50]: 0.47 °C | ΔTm [51]: -0.9 °C and 1.4 °C
